Conditions: Liquid

ClCCCl [1,2-dichloroethane]
mass density [kg/m3]
Conditions	288.15 K	298.15 K	308.15 K	318.15 K
100 kPa	1259.9	1245.5	1231	1216.4
500 kPa	1260.3	1246.1	1231.4	1216.7
1000 kPa	1260.8	1246.4	1232	1217.4
1500 kPa	1261.2	1246.9	1232.5	1218
2000 kPa	1261.6	1247.4	1233	1218.5
2500 kPa	1262.2	1247.8	1233.5	1219.1
3100 kPa	1262.7	1248.5	1234.2	1219.8
3600 kPa	1263.2	1248.9	1234.7	1220.3
4100 kPa	1263.6	1249.4	1235.2	1220.9
4600 kPa	1264	1249.9	1235.7	1221.4
5100 kPa	1264.5	1250.4	1236.2	1222
5600 kPa	1264.9	1250.9	1236.9	1222.6
6100 kPa	1265.4	1251.4	1237.3	1223.1
6600 kPa	1265.8	1251.9	1237.9	1223.6
7100 kPa	1266.2	1252.3	1238.4	1224.1
7600 kPa	1266.7	1252.9	1238.6	1224.7
8100 kPa	1267.2	1253.2	1239.3	1225.2
8600 kPa	1267.6	1253.8	1239.8	1225.8
9200 kPa	1268.2	1254.4	1240.4	1226.3
9600 kPa	1268.6	1254.9	1240.9	1226.9
10000 kPa	–	1255.1	–	–
10100 kPa	1269	–	1241.3	1227.5
10600 kPa	1269.4	1255.9	1241.8	1227.9
11100 kPa	1269.8	1256.4	1242.3	1228.4
11600 kPa	1270.3	1256.7	1242.8	1229
12100 kPa	1270.7	1257.3	1243.4	1229.5
12500 kPa	–	–	–	1230
12600 kPa	1271	1257.6	1243.8	–
13100 kPa	1271.5	1258	1244.2	1230.6
13600 kPa	1271.9	1258.5	1244.7	1231
14100 kPa	1272.4	–	–	–
14200 kPa	–	1259	1245.3	1231.6
14700 kPa	1272.9	1259.4	1245.8	1232.1
15200 kPa	1273.3	1260	1246.4	1232.7
15600 kPa	–	–	–	1233.1
15700 kPa	1273.7	1260.5	1246.8	–
16200 kPa	–	1260.8	1247.2	–
16300 kPa	1274.2	–	–	1233.8
16700 kPa	–	1261.4	1247.7	–
16800 kPa	1274.6	–	–	1234.2
17200 kPa	1275	–	1248.2	–
17300 kPa	–	1261.9	–	1234.8
17700 kPa	1275.4	–	–	–
17800 kPa	–	1262.4	1248.7	1235.2
18200 kPa	1275.8	–	–	1235.5
18300 kPa	–	1262.8	1249.2	–
18600 kPa	1276.2	–	–	–
18800 kPa	–	1263.3	1249.6	–
18900 kPa	–	–	–	1236.2
19000 kPa	1276.5	–	–	–
19200 kPa	–	1263.7	1250.1	1236.5
19400 kPa	1276.9	–	–	–
19700 kPa	–	1264.1	1250.6	1237.1
20000 kPa	1277.3	–	–	–
20200 kPa	–	1264.5	1251	1237.5
